US20200255828A1, “METHODS AND COMPOSITIONS FOR ALTERING FUNCTION AND STRUCTURE OF CHROMATIN LOOPS AND/OR DOMAINS” (THE BROAD INSTITUTE, INC., priority 2017, published 2020)

Tested on: HCT-116 RAD21-mAC cells
Test: PRO-Seq nascent transcription after cohesin loss
Format: cell-based, human
Source text: Finally, Applicants sought to investigate the role of cohesin in regulating gene expression. Cohesin has been proposed to facilitate interactions between enhancers and promoters (Kagey et al., 2010; Merkenschlager and Nora, 2016). Loop domains are thought to regulate this process by preventing enhancers from forming ectopic interactions with targets that lie in a different loop domain (Lupiáñez et al., 2015; Flavahan et al., 2016). Applicants therefore characterized the effects of cohesin loss on nascent transcription by performing precision nuclear run-on sequencing (PRO-Seq) in treated and untreated HCT116 cells (Engreitz et al., 2016; Jonkers and Lis, 2015) (FIG. 7A). Applicants chose an early timepoint—6 hours after auxin treatment—with the aim of examining direct consequences, rather than indirect effects due to changes in cell state.
To measure changes in transcription resulting from cohesin loss, Applicants performed precision run-on sequencing (PRO-Seq) (Jonkers and Lis, 2015), a variant of global run-on sequencing (GRO-Seq), using a single biotinylated nucleotide (biotin-11-CTP) as previously described (Engreitz et al., 2016). Applicants made one modifications to the protocol: at the end of each biotin enrichment, Applicants eluted biotinylated RNAs from the streptavidin-coated magnetic beads by heating beads in 25 μl of 20 mM Tris-HCl pH 7.5, 10 mM EDTA, 2% N-lauroylsarcosine at 95° C. for 5 minutes, followed by a magnetic-bead nucleic acid purification with 20 μl of MyONE SILANE beads. During the nuclei preparation step, Applicants processed pairs of RAD21-mAC cells with and without auxin treatment in parallel. In addition, Applicants performed PRO-Seq on HCT-116 CMV-OsTIR1 cells, the parental cell line of RAD21-mAC containing the OsTIR1 gene integrated at the AAVS1 locus and no mAID tags integrated on any protein. By performing PRO-Seq on CMV-OsTIR1 cells with and without auxin treatment, Applicants could control for transcriptional effects of the auxin treatment itself on HCT-116 cells, as well as any consequences of tagging the RAD21 protein.
For analysis of PRO-Seq data, Applicants aligned 30-bp paired-end reads to the hg19 reference (bowtie2 v2.1.0, (Langmead and Salzberg, 2012)), removed duplicate reads (Picard picard.sourceforge.net), and discarded reads with MAPQ <30. Applicants counted reads overlapping RefSeq genes (collapsed by gene symbol to the longest isoform)—this quantification procedure includes signal both at the paused position (near the TSS) as well as in the gene body. Applicants identified genes showing significant differences in transcription with DESeq2 (Love et al., 2014), excluding genes with zero coverage in all samples and calling significance at Benjamini-Hochberg corrected p-value <0.05.
To determine whether there were global changes in the total amount of transcription (up or down) that would affect the normalization and analysis of these experiments, Applicants included a spike-in control in three of the four PRO-Seq replicates for each of untreated and treated RAD21-mAC and CMV-OsTIR1 cells. Specifically, Applicants added ˜500,000 Drosophila S2 cells at the beginning of the protocol. Upon sequencing of these libraries, Applicants counted the number of spike-in reads by aligning to the Drosophila genome (dme13) with bowtie2 v2.1.0.
Assessment of changes in transcription after cohesin loss. […]

## O=C(O)Cc1c[nH]c2ccccc12 [auxin, indole-3-acetic acid]
Upon auxin treatment
  AKAP12 expression down-regulation: 3.3 fold
  IER5L expression down-regulation: 2.6 fold
  KITLG expression down-regulation: 2.73 fold
Vs untreated HCT-116-CMV-OsTIR1 control
  number of genes 2-fold downregulated with p<0.05 after auxin treatment: 43
Vs untreated RAD21-mAC cells
  number of genes 1.75-fold downregulated with p<0.05 after auxin treatment: 49
